Key:
Experiment in all cases: relative viability (nuclei count vs DMSO), 5 days (fraction); higher = more cells survive
HARA = tested on: HARA
Method in brief: (§1)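 Relative viability divides the nuclei count in treated wells by that in vehicle wells. Lung cancer cell lines were seeded in 1536-well plates, dosed by pin tool the next day, and fixed and stained after 5 days in one step with final 0.05% Triton X-100, 1% formaldehyde and 1 ug/ml Hoechst. Dosing was a single drug or a fixed anchor-drug dose plus five library-drug doses (not always all listed) in √10 steps, and values are medians of duplicate plates imaged at 4×.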

HCC-15 = tested on: HCC-15
Method in brief: as §1

HCC-366 = tested on: HCC-366
Method in brief: as §1

IA-LM = tested on: IA-LM
Method in brief: as §1

LU99A = tested on: LU99A
Method in brief: as §1

LXF-289 = tested on: LXF-289
Method in brief: as §1

NCI-H1666 = tested on: NCI-H1666
Method in brief: as §1

NCI-H1703 = tested on: NCI-H1703
Method in brief: as §1

NCI-H1734 = tested on: NCI-H1734
Method in brief: as §1

NCI-H1792 = tested on: NCI-H1792
Method in brief: as §1

NCI-H1944 = tested on: NCI-H1944
Method in brief: as §1

NCI-H1975 = tested on: NCI-H1975
Method in brief: as §1

NCI-H2228 = tested on: NCI-H2228
Method in brief: as §1

NCI-H2347 = tested on: NCI-H2347
Method in brief: as §1

NCI-H2405 = tested on: NCI-H2405
Method in brief: as §1

NCI-H3122 = tested on: NCI-H3122
Method in brief: as §1

NCI-H358 = tested on: NCI-H358
Method in brief: as §1

NCI-H460 = tested on: NCI-H460
Method in brief: as §1

NCI-H650 = tested on: NCI-H650
Method in brief: as §1

NCI-H661 = tested on: NCI-H661
Method in brief: as §1

NCI-H838 = tested on: NCI-H838
Method in brief: as §1

PC-3 [JPC-3] = tested on: PC-3 [JPC-3]
Method in brief: as §1

SW 1573 = tested on: SW 1573
Method in brief: as §1

SMILES: Nc1cccc2c1CN(C1CCC(=O)NC1=O)C2=O (stereo not given) [Lenalidomide] + C[C@@H](Oc1cc(-c2cnn(C3CCNCC3)c2)cnc1N)c1c(Cl)ccc(F)c1Cl [Crizotinib] (partner 1 µM)
- relative viability (HARA; first compound 0.253 µM): 1.02
- relative viability (HARA; first compound 0.8 µM): 1.05
- relative viability (HARA; first compound 2.53 µM): 1.2
- relative viability (HARA; first compound 8 µM): 1.13
- relative viability (HCC-15; first compound 0.253 µM): 0.809
- relative viability (HCC-15; first compound 2.53 µM): 1.03
- relative viability (HCC-15; first compound 8 µM): 0.799
- relative viability (HCC-366; first compound 0.253 µM): 0.56
- relative viability (HCC-366; first compound 0.8 µM): 0.499
- relative viability (HCC-366; first compound 2.53 µM): 0.465
- relative viability (HCC-366; first compound 8 µM): 0.499
- relative viability (IA-LM; first compound 0.253 µM): 0.833
- relative viability (IA-LM; first compound 0.8 µM): 0.753
- relative viability (IA-LM; first compound 2.53 µM): 0.759
- relative viability (IA-LM; first compound 8 µM): 0.756
- relative viability (LU99A; first compound 0.253 µM): 0.525
- relative viability (LU99A; first compound 0.8 µM): 0.517
- relative viability (LU99A; first compound 2.53 µM): 0.559
- relative viability (LU99A; first compound 8 µM): 0.54
- relative viability (LXF-289; first compound 0.253 µM): 0.831
- relative viability (LXF-289; first compound 0.8 µM): 0.836
- relative viability (LXF-289; first compound 2.53 µM): 0.919
- relative viability (LXF-289; first compound 8 µM): 0.983
- relative viability (NCI-H1666; first compound 0.253 µM): 0.973
- relative viability (NCI-H1666; first compound 0.8 µM): 0.807
- relative viability (NCI-H1666; first compound 2.53 µM): 1.19
- relative viability (NCI-H1666; first compound 8 µM): 1.11
- relative viability (NCI-H1703; first compound 0.253 µM): 0.467
- relative viability (NCI-H1703; first compound 0.8 µM): 0.707
- relative viability (NCI-H1703; first compound 2.53 µM): 0.671
- relative viability (NCI-H1703; first compound 8 µM): 0.89
- relative viability (NCI-H1734; first compound 0.253 µM): 0.622
- relative viability (NCI-H1734; first compound 0.8 µM): 0.654
- relative viability (NCI-H1734; first compound 2.53 µM): 0.618
- relative viability (NCI-H1734; first compound 8 µM): 0.597
- relative viability (NCI-H1792; first compound 0.253 µM): 1.04
- relative viability (NCI-H1792; first compound 0.8 µM): 0.795
- relative viability (NCI-H1792; first compound 2.53 µM): 1.12
- relative viability (NCI-H1792; first compound 8 µM): 0.96
- relative viability (NCI-H1944; first compound 0.253 µM): 1.1
- relative viability (NCI-H1944; first compound 0.8 µM): 1.1
- relative viability (NCI-H1944; first compound 2.53 µM): 1.15
- relative viability (NCI-H1944; first compound 8 µM): 1
- relative viability (NCI-H1975; first compound 0.253 µM): 1.03
- relative viability (NCI-H1975; first compound 0.8 µM): 0.984
- relative viability (NCI-H1975; first compound 2.53 µM): 1.15
- relative viability (NCI-H1975; first compound 8 µM): 1.01
- relative viability (NCI-H2228; first compound 0.253 µM): 0.421
- relative viability (NCI-H2228; first compound 0.8 µM): 0.362
- relative viability (NCI-H2228; first compound 2.53 µM): 0.586
- relative viability (NCI-H2228; first compound 8 µM): 0.457
- relative viability (NCI-H2347; first compound 0.253 µM): 0.779
- relative viability (NCI-H2347; first compound 0.8 µM): 0.674
- relative viability (NCI-H2347; first compound 2.53 µM): 0.83
- relative viability (NCI-H2347; first compound 8 µM): 0.573
- relative viability (NCI-H2405; first compound 0.253 µM): 0.819
- relative viability (NCI-H2405; first compound 0.8 µM): 0.858
- relative viability (NCI-H2405; first compound 2.53 µM): 0.897
- relative viability (NCI-H2405; first compound 8 µM): 0.791
- relative viability (NCI-H3122; first compound 0.253 µM): 0.261
- relative viability (NCI-H3122; first compound 0.8 µM): 0.286
- relative viability (NCI-H3122; first compound 2.53 µM): 0.261
- relative viability (NCI-H3122; first compound 8 µM): 0.258
- relative viability (NCI-H358; first compound 0.253 µM): 0.667
- relative viability (NCI-H358; first compound 0.8 µM): 0.592
- relative viability (NCI-H358; first compound 2.53 µM): 0.541
- relative viability (NCI-H358; first compound 8 µM): 0.712
- relative viability (NCI-H460; first compound 0.253 µM): 0.807
- relative viability (NCI-H460; first compound 0.8 µM): 1.06
- relative viability (NCI-H460; first compound 2.53 µM): 1.01
- relative viability (NCI-H460; first compound 8 µM): 0.929
- relative viability (NCI-H650; first compound 0.253 µM): 0.755
- relative viability (NCI-H650; first compound 2.53 µM): 0.863
- relative viability (NCI-H650; first compound 8 µM): 0.809
- relative viability (NCI-H661; first compound 0.253 µM): 0.972
- relative viability (NCI-H661; first compound 0.8 µM): 0.898
- relative viability (NCI-H661; first compound 2.53 µM): 0.905
- relative viability (NCI-H661; first compound 8 µM): 0.973
- relative viability (NCI-H838; first compound 0.253 µM): 0.847
- relative viability (NCI-H838; first compound 0.8 µM): 0.954
- relative viability (NCI-H838; first compound 2.53 µM): 0.914
- relative viability (NCI-H838; first compound 8 µM): 0.913
- relative viability (PC-3 [JPC-3]; first compound 0.253 µM): 0.933
- relative viability (PC-3 [JPC-3]; first compound 0.8 µM): 0.936
- relative viability (PC-3 [JPC-3]; first compound 2.53 µM): 1.02
- relative viability (PC-3 [JPC-3]; first compound 8 µM): 1.09
- relative viability (SW 1573; first compound 0.253 µM): 0.801
- relative viability (SW 1573; first compound 0.8 µM): 0.844
- relative viability (SW 1573; first compound 2.53 µM): 0.766
- relative viability (SW 1573; first compound 8 µM): 0.772
